The values that follow come from patent US11566057B2, “Long-acting co-agonists of the glucagon and GLP-1 receptors” (Merck Sharp & Dohme Corp., priority 2017, dated 2023).

Where two headings read alike, the source gives them in different places. Numbered stars: 1 amine (or outer) side, 2 acyl side, 3 side chain; on linkers, the order of the positions; unused ones are H or OH. Square brackets hold non-standard residues; d marks the D form. Side chains are listed from the residue outwards. Peptide text beside a SMILES is read from it. * marks the point of attachment. Phe(4-CH2NH2) = NCc1ccc(C[C@H](N)C(=O)O)cc1; C18 diacid = O=C(O)CCCCCCCCCCCCCCCCC(=O)*; C16 diacid = O=C(O)CCCCCCCCCCCCCCC(=O)*; γGlu = O=C(O)[C@H](CCC(=O)[*:2])N[*:1]; Met(O2) = CS(=O)(=O)CC[C@H](N)C(=O)O; αMeD = C[C@](N)(CC(=O)O)C(=O)O; αMeS = C[C@](N)(CO)C(=O)O; AEEA = NCCOCCOCC(=O)O; Aib = CC(C)(N)C(=O)O Some results are limits rather than exact numbers.

The target of one experiment is T1, human GCGR (Homo sapiens, UniProt P47871).
T1 construct: expressed in transfected cells; growth medium holds Blasticidin and Hygromycin
T1 sequence (P47871 26-477): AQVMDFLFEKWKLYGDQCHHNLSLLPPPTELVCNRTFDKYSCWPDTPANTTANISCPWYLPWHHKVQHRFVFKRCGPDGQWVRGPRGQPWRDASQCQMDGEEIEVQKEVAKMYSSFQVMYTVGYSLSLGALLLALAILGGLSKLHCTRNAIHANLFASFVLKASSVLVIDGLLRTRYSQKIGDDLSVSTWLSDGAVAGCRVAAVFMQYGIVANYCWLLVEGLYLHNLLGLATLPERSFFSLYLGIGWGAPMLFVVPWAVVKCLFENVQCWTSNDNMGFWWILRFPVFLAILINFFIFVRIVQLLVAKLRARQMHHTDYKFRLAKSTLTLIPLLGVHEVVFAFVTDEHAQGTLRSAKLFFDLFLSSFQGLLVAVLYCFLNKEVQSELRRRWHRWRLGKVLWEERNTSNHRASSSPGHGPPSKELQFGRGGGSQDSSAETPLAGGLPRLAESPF
Description: cAMP activity assay at the Glucagon receptor (GCGR). Type of experiment: cell-based. The note with it: for hGCGR/hGLP1R (hTone): ratio of GCGR EC50 to GLP1R EC50. The method in brief: (§1)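 Peptides serially diluted from DMSO (10 points) and added to frozen-stock cells bearing human GLP1R (10,000 cells/well) or GCGR (30,000 cells/well), 1 h at RT, dark. EC50 by four-parameter logistic fit of HitHunter cAMPXS luminescence, read following overnight RT incubation.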

The target of another experiment is T2, human GLP1R (Homo sapiens, UniProt P43220).
T2 construct: expressed in transfected cells; growth medium holds Blasticidin and Hygromycin
T2 sequence (P43220 24-463): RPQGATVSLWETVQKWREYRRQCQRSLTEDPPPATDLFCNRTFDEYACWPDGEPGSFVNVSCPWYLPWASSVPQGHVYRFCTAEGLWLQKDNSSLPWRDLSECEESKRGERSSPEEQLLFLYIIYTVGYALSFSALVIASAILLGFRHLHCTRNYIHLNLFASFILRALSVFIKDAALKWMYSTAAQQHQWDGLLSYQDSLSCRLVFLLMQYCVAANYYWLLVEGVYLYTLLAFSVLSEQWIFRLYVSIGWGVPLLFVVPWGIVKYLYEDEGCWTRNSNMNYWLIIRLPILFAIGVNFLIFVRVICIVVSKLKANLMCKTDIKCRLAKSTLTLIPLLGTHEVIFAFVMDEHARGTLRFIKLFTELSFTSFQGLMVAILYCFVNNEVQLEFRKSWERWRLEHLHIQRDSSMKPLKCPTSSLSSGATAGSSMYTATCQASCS
Briefly: cAMP activity assay at the GLP-1 receptor (GLP1R). Type of experiment: cell-based. The method in brief: as §1

The mark [1] stands for this setting: summary statement: EC50 at each of the glucagon and GLP-1 receptors, read-out: EC50 at the glucagon receptor.
[2] abbreviates: cells expressing human GLP1R, cAMP production, buffer with or without 20% human serum (not stated which), read-out: GLP1R EC50 human.
[3] abbreviates: summary statement: EC50 at each of the glucagon and GLP-1 receptors, read-out: EC50 at the GLP-1 receptor.
[4] abbreviates: cells expressing human GCGR, cAMP production, buffer with or without 20% human serum (not stated which), read-out: GCGR EC50 human.

For orientation: EC50 means the concentration at which the effect is half-maximal. As for `CC(C)C[C@H](NC(=O)[C@H](Cc1c[nH]c2ccccc12)NC(=O)[C@H](CCCCNC(=O)COCCOCCNC(=O)COCCOCCNC(=O)CC[C@H](NC(=O)CCCCCCCCCCCCCCCCC(=O)O)C(=O)O)NC(=O)[C@@H](NC(=O)[C@H](Cc1ccccc1)NC(=O)[C@H](CC(=O)O)NC(=O)[C@H](CCC(N)=O)NC(=O)[C@H](C)NC(=O)[C@H](C)NC(=O)[C@H](CCCNC(=N)N)NC(=O)C(C)(C)NC(=O)[C@H](CC(=O)O)NC(=O)[C@H](CC(C)C)NC(=O)[C@H](Cc1ccc(O)cc1)NC(=O)[C@H](CCCCN)NC(=O)[C@H](CO)NC(=O)[C@H](Cc1ccc(O)cc1)NC(=O)[C@H](CC(=O)O)NC(=O)[C@H](CO)NC(=O)[C@@H](NC(=O)[C@H](Cc1ccccc1)NC(=O)[C@@H](NC(=O)CNC(=O)[C@H](CCC(N)=O)NC(=O)C(C)(C)NC(=O)[C@@H](N)Cc1c[nH]cn1)[C@@H](C)O)[C@@H](C)O)C(C)C)C(=O)N[C@@H](CCS(C)(=O)=O)C(=O)N[C@@H](CCC(=O)O)C(=O)N[C@H](C(N)=O)[C@@H](C)O` [TP675] (H-H[Aib]QGTFTSDYSKYLD[Aib]RAAQDFVK([AEEA-AEEA-γGlu-C18 diacid])WL[Met(O2)]ET-NH2), the “hGCGR/hGLP1R (hTone)” value on human GCGR is recorded as 0.4. The EC50 is below 5 nM at human GCGR (setting [1]), 0.71 nM on human GLP1R (setting [2]) and below 5 nM at human GLP1R (setting [3]).
For the molecule `CC(C)C[C@H](NC(=O)[C@H](Cc1ccc(O)cc1)NC(=O)[C@H](CCCCN)NC(=O)[C@H](CO)NC(=O)[C@H](Cc1ccc(O)cc1)NC(=O)[C@H](CC(=O)O)NC(=O)[C@H](CO)NC(=O)[C@@H](NC(=O)[C@H](Cc1ccccc1)NC(=O)[C@@H](NC(=O)CNC(=O)[C@H](CCC(N)=O)NC(=O)C(C)(C)NC(=O)[C@@H](N)Cc1c[nH]cn1)[C@@H](C)O)[C@@H](C)O)C(=O)N[C@@H](CC(=O)O)C(=O)N[C@@H](C)C(=O)N[C@@H](CCCNC(=N)N)C(=O)N[C@@H](C)C(=O)N[C@@H](C)C(=O)N[C@@H](CCC(N)=O)C(=O)N[C@@H](Cc1ccc(CNC(=O)COCCOCCNC(=O)CC[C@H](NC(=O)CCCCCCCCCCCCCCCCC(=O)O)C(=O)O)cc1)C(=O)N[C@@H](Cc1ccccc1)C(=O)N[C@H](C(=O)N[C@@H](CCC(N)=O)C(=O)N[C@@H](Cc1c[nH]c2ccccc12)C(=O)N[C@@H](CC(C)C)C(=O)N[C@@H](CC(C)C)C(=O)N[C@@H](CC(=O)O)C(=O)N[C@H](C(N)=O)[C@@H](C)O)C(C)C` [TP633] (H-H[Aib]QGTFTSDYSKYLDARAAQ[Phe(4-CH2NH2)]([AEEA-γGlu-C18 diacid])FVQWLLDT-NH2; N-terminus assumed), the “hGCGR/hGLP1R (hTone)” value at human GCGR came out at 0.7. The figures for the EC50 at human GCGR (setting [1]), at human GLP1R (setting [2]) and on human GLP1R (setting [3]) were below 5 nM, 0.19 nM and below 5 nM, respectively.
In the case of `CC(C)C[C@H](NC(=O)[C@H](Cc1ccc(O)cc1)NC(=O)[C@H](CCCCN)NC(=O)[C@H](CO)NC(=O)[C@H](Cc1ccc(O)cc1)NC(=O)[C@H](CC(=O)O)NC(=O)[C@H](CO)NC(=O)[C@@H](NC(=O)[C@H](Cc1ccccc1)NC(=O)[C@@H](NC(=O)CNC(=O)[C@H](CCC(N)=O)NC(=O)C(C)(C)NC(=O)[C@@H](N)Cc1c[nH]cn1)[C@@H](C)O)[C@@H](C)O)C(=O)N[C@@H](CC(=O)O)C(=O)N[C@@H](C)C(=O)N[C@@H](CCCNC(=N)N)C(=O)N[C@@H](C)C(=O)N[C@@H](C)C(=O)N[C@@H](CCCCNC(=O)COCCOCCNC(=O)COCCOCCNC(=O)CC[C@H](NC(=O)CCCCCCCCCCCCCCCCC(=O)O)C(=O)O)C(=O)N[C@@](C)(CC(=O)O)C(=O)N[C@@H](Cc1ccccc1)C(=O)N[C@H](C(=O)N[C@@H](CCC(N)=O)C(=O)N[C@@H](Cc1c[nH]c2ccccc12)C(=O)N[C@@H](CC(C)C)C(=O)N[C@@H](CCS(C)(=O)=O)C(=O)N[C@@](C)(CC(=O)O)C(=O)N[C@H](C(N)=O)[C@@H](C)O)C(C)C` [TP611] (H-H[Aib]QGTFTSDYSKYLDARAAK([AEEA-AEEA-γGlu-C18 diacid])[αMeD]FVQWL[Met(O2)][αMeD]T-NH2), the figures for the EC50 at human GCGR (setting [4]) and on human GLP1R (setting [2]) were 0.2 nM and above 5 nM, respectively. The “hGCGR/hGLP1R (hTone)” value on human GCGR is on record as below 0.02.
On to `CC(C)C[C@H](NC(=O)[C@H](Cc1ccc(O)cc1)NC(=O)[C@H](CCCCN)NC(=O)[C@H](CO)NC(=O)[C@H](Cc1ccc(O)cc1)NC(=O)[C@H](CC(=O)O)NC(=O)[C@H](CO)NC(=O)[C@@H](NC(=O)[C@H](Cc1ccccc1)NC(=O)[C@@H](NC(=O)CNC(=O)[C@H](CCC(N)=O)NC(=O)[C@](C)(CO)NC(=O)[C@@H](N)Cc1c[nH]cn1)[C@@H](C)O)[C@@H](C)O)C(=O)N[C@@H](CC(=O)O)C(=O)N[C@@H](C)C(=O)N[C@@H](CCCNC(=N)N)C(=O)N[C@@H](C)C(=O)N[C@@H](C)C(=O)N[C@@H](CCCCNC(=O)COCCOCCNC(=O)COCCOCCNC(=O)CC[C@H](NC(=O)CCCCCCCCCCCCCCC(=O)O)C(=O)O)C(=O)N[C@@H](CC(=O)O)C(=O)N[C@@H](Cc1ccccc1)C(=O)N[C@H](C(=O)N[C@@H](CCC(N)=O)C(=O)N[C@@H](Cc1c[nH]c2ccccc12)C(=O)N[C@@H](CC(C)C)C(=O)N[C@@H](CCS(C)(=O)=O)C(=O)N[C@@](C)(CC(=O)O)C(=O)N[C@H](C(N)=O)[C@@H](C)O)C(C)C` [TP614] (H-H[αMeS]QGTFTSDYSKYLDARAAK([AEEA-AEEA-γGlu-C16 diacid])DFVQWL[Met(O2)][αMeD]T-NH2; N-terminus assumed), for which the EC50 was 0.86 nM at human GCGR (setting [4]), below 5 nM at human GCGR (setting [1]) and below 5 nM on human GLP1R (setting [3]). Also, the “hGCGR/hGLP1R (hTone)” value on human GCGR is on record as 0.6.
As for `CC(C)C[C@H](NC(=O)[C@H](Cc1c[nH]c2ccccc12)NC(=O)[C@H](CCCCNC(=O)COCCOCCNC(=O)COCCOCCNC(=O)CC[C@H](NC(=O)CCCCCCCCCCCCCCCCC(=O)O)C(=O)O)NC(=O)[C@@H](NC(=O)[C@H](Cc1ccccc1)NC(=O)[C@H](CC(=O)O)NC(=O)[C@H](CCC(N)=O)NC(=O)[C@H](C)NC(=O)[C@H](C)NC(=O)[C@H](CCCNC(=N)N)NC(=O)C(C)(C)NC(=O)[C@H](CC(=O)O)NC(=O)[C@H](CC(C)C)NC(=O)[C@H](Cc1ccc(O)cc1)NC(=O)[C@H](CCCCN)NC(=O)[C@H](CO)NC(=O)[C@H](Cc1ccc(O)cc1)NC(=O)[C@H](CC(=O)O)NC(=O)[C@H](CO)NC(=O)[C@@H](NC(=O)[C@H](Cc1ccccc1)NC(=O)[C@@H](NC(=O)CNC(=O)[C@H](CCC(N)=O)NC(=O)C(C)(C)NC(=O)[C@@H](N)Cc1c[nH]cn1)[C@@H](C)O)[C@@H](C)O)C(C)C)C(=O)N[C@@H](CCS(C)(=O)=O)C(=O)N[C@@H](CC(=O)O)C(=O)N[C@H](C(=O)O)[C@@H](C)O` [TP737] (H-H[Aib]QGTFTSDYSKYLD[Aib]RAAQDFVK([AEEA-AEEA-γGlu-C18 diacid])WL[Met(O2)]DT-OH; N-terminus assumed), the “hGCGR/hGLP1R (hTone)” value on human GCGR was 0.6. In addition, the half-maximal effective concentration (EC50) at human GCGR (setting [1]) and at human GLP1R (setting [3]) was below 5 nM in each case.
Regarding `CC(C)C[C@H](NC(=O)[C@H](Cc1ccc(O)cc1)NC(=O)[C@H](CCCCN)NC(=O)[C@H](CO)NC(=O)[C@H](Cc1ccc(O)cc1)NC(=O)[C@H](CC(=O)O)NC(=O)[C@H](CO)NC(=O)[C@H](Cc1ccccc1)NC(=O)[C@H](Cc1ccccc1)NC(=O)[C@@H](NC(=O)CNC(=O)[C@H](CCC(N)=O)NC(=O)C(C)(C)NC(=O)[C@@H](N)Cc1c[nH]cn1)[C@@H](C)O)C(=O)N[C@@H](CC(=O)O)C(=O)N[C@@H](C)C(=O)N[C@@H](CCCNC(=N)N)C(=O)N[C@@H](C)C(=O)N[C@@H](C)C(=O)N[C@@H](CCCCNC(=O)COCCOCCNC(=O)COCCOCCNC(=O)CC[C@H](NC(=O)CCCCCCCCCCCCCCCCC(=O)O)C(=O)O)C(=O)N[C@@H](CC(=O)O)C(=O)N[C@@H](Cc1ccccc1)C(=O)N[C@H](C(=O)N[C@@H](CCC(N)=O)C(=O)N[C@@H](Cc1c[nH]c2ccccc12)C(=O)N[C@@H](CC(C)C)C(=O)N[C@@H](CCS(C)(=O)=O)C(=O)N[C@@H](CC(=O)O)C(=O)N[C@H](C(N)=O)[C@@H](C)O)C(C)C` [TP595] (H-H[Aib]QGTFFSDYSKYLDARAAK([AEEA-AEEA-γGlu-C18 diacid])DFVQWL[Met(O2)]DT-NH2; N-terminus assumed), at human GCGR, the “hGCGR/hGLP1R (hTone)” value was found to be 0.2. The EC50 at human GCGR (setting [1]) was below 5 nM; at human GLP1R (setting [2]), above 20 nM; at human GLP1R (setting [3]), below 5 nM.
In the case of `CC(C)C[C@H](NC(=O)[C@H](Cc1ccc(O)cc1)NC(=O)[C@H](CCCCN)NC(=O)[C@H](CO)NC(=O)[C@H](Cc1ccc(O)cc1)NC(=O)[C@H](CC(=O)O)NC(=O)[C@H](CO)NC(=O)[C@@H](NC(=O)[C@H](Cc1ccccc1)NC(=O)[C@@H](NC(=O)CNC(=O)[C@H](CCC(N)=O)NC(=O)C(C)(C)NC(=O)[C@@H](N)Cc1c[nH]cn1)[C@@H](C)O)[C@@H](C)O)C(=O)N[C@@H](CC(=O)O)C(=O)N[C@@H](C)C(=O)N[C@@H](CCCNC(=N)N)C(=O)N[C@@H](C)C(=O)N[C@@H](C)C(=O)N[C@@H](CCCCNC(=O)COCCOCCNC(=O)CC[C@H](NC(=O)CCCCCCCCCCCCCCCCC(=O)O)C(=O)O)C(=O)N[C@@H](CC(=O)O)C(=O)N[C@@H](Cc1ccccc1)C(=O)N[C@H](C(=O)N[C@@H](CCC(N)=O)C(=O)N[C@@H](Cc1c[nH]c2ccccc12)C(=O)N[C@@H](CC(C)C)C(=O)N[C@@H](CCS(C)(=O)=O)C(=O)N[C@@H](CC(=O)O)C(=O)N[C@H](C(N)=O)[C@@H](C)O)C(C)C` [TP626] (H-H[Aib]QGTFTSDYSKYLDARAAK([AEEA-γGlu-C18 diacid])DFVQWL[Met(O2)]DT-NH2; N-terminus assumed), at human GCGR, the “hGCGR/hGLP1R (hTone)” value was 0.6. The EC50 on human GCGR (setting [1]) and at human GLP1R (setting [3]) was below 5 nM throughout.
